# Measured values taken from patent US20240398764A1, “METHODS OF TREATING DISEASES ASSOCIATED WITH SENESCENT CELL ACCUMULATION” (University of Florida Research Foundation, Incorporated, priority 2021, published 2024).
# How the values were obtained:
# [1] = tested on: IR-induced senescent human umbilical vein endothelial cells (IR-SnC HUVEC); assay: Viability of IR-SnC HUVEC; assay type: cell-based; settings: 72 hr incubation; vs ABT263
# Procedure: (§1) FIGS. 3A to 3B depicts viability of non-SnC human umbilical vein endothelial cells (HUVEC) and IR-induced SnC HUVEC treated with varying concentrations of ABT263 (FIG. 3A) or 753b (FIG. 3B). FIGS. 3C to 3D depict viability of non-SnC renal epithelial cells (REC), IR-induced SnC REC, and replicative senescent REC treated with varying concentrations of ABT263 (FIG. 3C) or 753b (FIG. 3D).
# (§2) The viability of Non-SnC HUVEC, Non-SnC REC, IR-SnC HUVEC, IR-SnC REC, and Rep-SnC REC was measured 72 hr after they were incubated with increasing concentrations of 753b or ABT263 compared to cells/platelets with vehicle.
# [2] = tested on: replicative senescent REC (Rep-SnC REC); assay: Viability of Rep-SnC REC; assay type: cell-based; settings: 72 hr incubation; vs ABT263
# Procedure: as §1, §2
# [3] = tested on: normal non-senescent REC (Non-SnC REC); assay: Viability of Non-SnC REC; assay type: cell-based; settings: 72 hr incubation; vs ABT263
# Procedure: as §1, §2
# [4] = Body conditions and insulin tolerance test in the STAM model; assay type: in vivo, C57BL6 mice; settings: STZ/HFD mice; 5 mg/kg twice a week IP; postnatal day 150
# Procedure: FIG. 8A is an image showing body condition of STZ/HFD mice treated with vehicle control or 753b. FIG. 8B depicts blood glucose (mg/dL) levels versus time after intraperitoneal injection of insulin in STZ/HFD mice treated with vehicle control or 753b. Data were means±SD from 5 mice per group. *p<0.05.
# (§3) Experimental design: C57BL6 mice were injected with Streptozotocin (STZ) at postnatal day 2 to induce diabetes and then fed with HFD from postnatal day 30 till the end of the experiments (FIG. 5). Half of the mice started receiving vehicle and the others receiving 753b (5 mg/kg) treatment on postnatal day 45 twice a week by IP injection till the end of the experiments. A group of the mice were euthanized at postnatal day 90 (or day 45 after the initiation of the treatment) for analysis of senescent cell accumulation and steatosis. Another group of the mice were euthanized at postnatal day 150 (or day 105 after the initiation of the treatment) for analysis of liver fibrosis and cancer.
# 753b administration improves body conditions and ameliorates the development of insulin resistance in the STAM model. All the analyses were done in mice at postnatal day 150 (p150 or 105 days after treatment).
# [5] = Myofibroblast cell activation and liver fibrosis in the STAM model; assay type: in vivo, C57BL6 mice; settings: STZ/HFD mice, 5 mg/kg twice a week IP, postnatal day 150
# Procedure: FIG. 9A depicts relative change in aSMA, Procollagen-1, Tgf-β, Ctgf, and Pdgf-β genes in livers of STZ/HFD mice treated with vehicle control or 753b. Data were means±SD of triplicate experiments. *p<0.05. […] Scale bar: […]. […] Actin was used as a loading control. FIG. 9D depicts hydroxyproline (μg/g) levels in the liver of STZ/HFD mice treated with vehicle control or 753b. *p<0.05.
# as §3
# 753b administration inhibits myofibroblast cell activation and liver fibrosis in the STAM model. All the analyses were done in mice at postnatal day 150 (p150 or 105 days after treatment). […] Quantification was performed from 5 livers per group and was expressed as means±SD.
# [6] = Tumorigenesis in the STAM model (MRI); assay type: in vivo, C57BL6 mice; settings: STZ/HFD mice; 5 mg/kg twice a week IP; postnatal day 150
# Procedure: FIG. 10A depicts images of livers of STZ/HFD mice treated with vehicle control or 753b (top) and MRIs of T1 pre-contrast and T2-weighted images of corresponding livers (bottom). Tumor lesions are indicated by yellow arrows. […] FIG. 10C depicts a Western blot of Gpc3 in livers of STZ/HFD mice treated with vehicle control or 753b. Actin was used as a loading control.
# Experimental design: C57BL6 mice were injected with Streptozotocin (STZ) at postnatal day 2 to induce diabetes and then fed with HFD from postnatal day 30 till the end of the experiments (FIG. 5). Half of the mice started receiving vehicle and the others receiving 753b (5 mg/kg) treatment on postnatal day 45 twice a week by IP injection till the end of the experiments. […]
# All the analyses were done in mice at postnatal day 150 (p150 or 105 days after treatment). […] Tumor lesions were determined based on hypointense signals in T1 but hyperintense signals in T2-weighted image (FIG. 10A). Tumor number and volume was quantified based on MRI T1 and T2-weighted images. Values were expressed as means±SD from 5 mice per group. Data for each mouse were analyzed based on 5-6 slices of images that covered whole liver lobes (FIG. 10B). […] Quantification analysis was performed for the ratio between liver and body weight in the STZ/HFD treated livers that were exposed to 753b or control compound (FIG. 10D). […]
# Bcl-xl = Bcl-xl (Homo sapiens, UniProt Q07817); assay: Immunoblot of Bcl-xl degradation in WI-38 fibroblast cells (Non-SnCs and IR-SnCs); assay type: cell-based; set-up: degradation of Bcl-xl and Bcl-2 in non-senescent WI-38 fibroblast cells (Non-SnCs) treated with varying concentrations of 753b; endogenous in cells; host or cells: WI-38 fibroblasts (non-senescent and ionizing-radiation-induced senescent); settings: different concentrations, 16 h, dose-dependent
# Sequence of Bcl-xl (Q07817 whole entry): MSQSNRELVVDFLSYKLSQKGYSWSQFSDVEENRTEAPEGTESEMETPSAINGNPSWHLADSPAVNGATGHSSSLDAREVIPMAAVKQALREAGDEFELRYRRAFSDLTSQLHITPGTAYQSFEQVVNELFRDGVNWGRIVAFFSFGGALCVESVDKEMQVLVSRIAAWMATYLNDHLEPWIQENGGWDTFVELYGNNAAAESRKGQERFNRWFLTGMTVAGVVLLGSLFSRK
# Text: FIG. 2A depicts immunoblots showing degradation of Bcl-xl and Bcl-2 in non-senescent WI-38 fibroblast cells (Non-SnCs) treated with varying concentrations of 753b. 3-actin was used as a loading control. FIG. 2B depicts viability of Non-SnCs treated with varying concentrations of 753b or ABT263. FIG. 2C depicts immunoblots showing degradation of Bcl-xl and Bcl-2 in ionizing radiation-induced senescent WI-38 fibroblast cells (IR-SnCs) treated with varying concentrations of 753b. 3-actin was used as a loading control. FIG. 2D depicts viability of IR-SnCs treated with varying concentrations of 753b or ABT263. FIG. 2E depicts immunoblots showing degradation of Bcl-xl and Bcl-2 in human platelets treated with varying concentrations of 753b. FIG. 2F depicts viability of human platelets treated with varying concentrations of 753b or ABT263.
# The potency of 753b in degrading Bcl-xl/2 was evaluated by immunoblots after the cells or platelets were treated with different concentrations of 753b for 16 h ([…]). 753b is more cytotoxic to IR-SnCs but less toxic to Non-SnCs and platelets. The viability of Non-SnCs, IR-SnCs and platelets was measured 72 hr (Non-SnCs and IR-SnCs) and 48 hr (platelets) after they were incubated with increasing concentrations of 753b or ABT263 compared to cells/platelets with vehicle.
smiles,measurement,setting,value
Cc1ncsc1-c1ccc([C@H](C)NC(=O)[C@@H]2C[C@@H](O)CN2C(=O)[C@@H](NC(=O)CCCCCCC(=O)N2CCN(C[C@]3(C)CCC(c4ccc(Cl)cc4)=C(CN4CCN(c5ccc(C(=O)NS(=O)(=O)c6ccc(N[C@H](CCN7CCOCC7)CSc7ccccc7)c(S(=O)(=O)C(F)(F)F)c6)cc5)CC4)C3)CC2)C(C)(C)C)cc1 [Compound 753b],Senolytic potency (viability) against IR-SnC HUVEC compared with ABT263,[1],more potent senolytic agent
same,Senolytic potency (viability) against Rep-SnC REC compared with ABT263,[2],more potent senolytic agent
same,Toxicity (viability) to Non-SnC REC compared with ABT263,[3],less toxic
same,Body conditions (dehydration and dampen hair),[4],prevented the development of abnormal body conditions
same,Insulin resistance (intraperitoneal injected insulin tolerance test),[4],prevented insulin resistance
same,Collagen level in livers (hepatic hydroxyproline assay),[5],decreased levels of collagen
same,Liver fibrosis (aSMA immunofluorescent staining and sirius red staining),[5],prevented liver fibrosis
same,aSMA and pro-collagen type I protein levels in livers (Western blotting),[5],low levels of aSMA and pro-collagen type I proteins
same,Levels of fibrosis-related genes in livers (Q-RT-PCR),[5]; vs controls,lower levels of fibrosis-related genes
same,Tumorigenesis in the liver,[6],reduces tumorigenesis
same,Bcl-xl degradation in IR-SnCs,Bcl-xl; IR-induced senescent WI-38 fibroblast cells,degrades Bcl-xl and Bcl-2 in Non-SnCs and IR-SnCs
same,Bcl-xl degradation in Non-SnCs,Bcl-xl; non-senescent WI-38 fibroblast cells,degrades Bcl-xl and Bcl-2 in Non-SnCs and IR-SnCs
